# Measured values published in patent US7091199B1, “Thienoisoxazole phenoxy unsubstituted ethyl and propyl derivatives useful as d4 antagonists” (Aventis Pharmaceuticals Inc., priority 1999, dated 2006).
# pKi: −log10 of the molar value. Counter-ions that a name gives are not always drawn.
# Molecular target: T1, human D4 receptor (D4.2 sub-type) (Homo sapiens, UniProt P21917, DEL271-302)
# T1 sequence (P21917 with tags, fused parts or gaps DEL271-302): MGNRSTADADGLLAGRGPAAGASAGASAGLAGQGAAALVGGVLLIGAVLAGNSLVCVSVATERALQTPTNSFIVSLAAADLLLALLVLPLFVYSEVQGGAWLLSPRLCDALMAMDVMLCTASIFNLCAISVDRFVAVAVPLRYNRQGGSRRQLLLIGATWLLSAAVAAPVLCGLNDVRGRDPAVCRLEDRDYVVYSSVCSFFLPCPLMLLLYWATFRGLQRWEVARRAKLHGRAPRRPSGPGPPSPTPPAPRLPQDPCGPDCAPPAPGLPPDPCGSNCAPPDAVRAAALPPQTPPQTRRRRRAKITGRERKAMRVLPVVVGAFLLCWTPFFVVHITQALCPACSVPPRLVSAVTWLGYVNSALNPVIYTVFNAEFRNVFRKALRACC
# Test: D4 receptor binding assay (3H-spiperone displacement)
# Details: 3H-spiperone 0.25 nM, HEK cell membranes, human D4.2; read-out: D4 RBA Ki
# Experimental: D4 receptor-binding affinities of the compounds were evaluated according to their ability to reduce binding of ^3H-spiperone as compared to the reference compound clozapine. The potency of the test compound to reduce ^3H-spiperone binding directly correlated to its binding affinity for the receptor.
# […] (human embryonic kidney) cells stably transfected with human D4 receptor (D4.2 sub-type) were grown in NUNC cell factories for 5 days (75% confluency) without a media change and removed with versene (approximately 19 mg of cells per cell factory tray). The cells were then centrifuged in a Sorval centrifuge for 10 min, 5000 rpm (GS3 rotor) and the pellets quickly frozen in liquid nitrogen and stored at −80° C. until used in binding assay. When used in the assay, cells were thawed on ice for 20 min and then 10 mL of incubation buffer (50 mM Tris, 1 mM EDTA, 4 mM MgCl2, 5 mM KCl, 1.5 mM CaCl2, 120 mM NaCl, pH 7.4) was added. The cells were then vortexed to resuspend pellet and homogenized with a Kinematica, CH-6010 Kriens-LU, homogenizer for 15 seconds at setting 7. Concentration of receptor protein was determined using the Pierce BCA assay.
# The incubation was started by the addition of 100 μl (50 μg protein) membrane homogenate to a solution of 300 μl incubation buffer and 100 μl (0.25 nM final conc.) ^3H-spiperone (90 Ci/mmol, Amersham, diluted in borosilicate glass vial) in 96-well polypropylene plates (1 mL per well). The plates were vortexed and incubated at room temperature for 90 minutes. The binding reaction was stopped by filtering using a Packard Harvester. The samples were filtered under vacuum over glass fibre filter plates (Whatman GF/B) presoaked for 2 hours in 0.3% polyethylenimine (PEI) in 50 mM Tris buffer (pH 7.4). The filters were then washed 6 times with 7 mL ice cold 50 mM Tris buffer (pH 7.4). The filter plates were dried overnight and 35 μl of Microscint-O (Packard) was added. The plates were sealed and counted in the Packard Top Count (3 minutes per well).
# The incubation was started by the addition of 100 μl (50 μg protein) membrane homogenate to a solution of 200 μl incubation buffer, 100 μl ^3H-spiperone (90 Ci/mmol, Amersham, diluted in borosilicate glass vial to 0.25 nM final conc.) and 100 μl (30 μM final conc.) of fresh dopamine (Research Biochemicals Inc., light protected and dissolved in incubation buffer) in 96-well polypropylene plates (1 mL per well). The plates were vortexed and incubated at room temperature for 90 minutes at which time the binding reaction was stopped by filtering. The filters were washed and counted using the same procedure as in the total binding assay described above to give the non-specific binding value (NSB).
# The incubation was started by the addition, in 96-well polypropylene plates (1 mL per well), of 100 μl (50 μg protein) membrane homogenate to a solution of 200 μl incubation buffer, 100 μl (0.25 nM final conc.) ^3H-spiperone (90 Ci/mmol, Amersham, diluted in borosilicate glass vial) and 100 μl of test compound that was prepared from 1 mM stock dissolved in DMSO and stored at −20° C. in polypropylene cryogenic storage vials until dilution in incubation buffer in 96-well polypropylene plates. The plates were vortexed and incubated at room temperature for 90 minutes at which time the binding reaction was stopped by filtering. The filters were washed and counted using the same procedure as in the total binding assay described above to give the displacement binding value (BD).
# The test compounds were initially assayed at 1 and 0.1 μM and then at a range of concentrations chosen such that the middle dose would cause about 50% inhibition of ^3H-spiperone binding. Specific binding in the absence of test compound (B0) was the difference of total binding (BT) minus non-specific binding (NSB) and similarly specific binding (in the presence of test compound) (B) was the difference of displacement binding (BD) minus non-specific binding (NSB). […]
row,Structure (SMILES),pKi
1,"c1cc(OCCNC2Cc3ccccc3C2)cc(-c2noc3ccsc23)c1 [Compound 46, indan-2-yl-[2-(3-thieno[2,3-d]isoxazol-3-yl-phenoxy)-ethyl]-amine hydrochloride]",7.44
2,"Clc1ccc(CNCCCOc2cccc(-c3noc4ccsc34)c2)cc1 [Compound 4, (4-chloro-benzyl)-[3-(3-thieno[2,3-d]isoxazol-3-yl-phenoxy)-propyl]-amine]",7.35
3,"COc1ccccc1CNCCOc1cccc(-c2noc3ccsc23)c1 [Compound 21, (2-methoxy-benzyl)-[2-(3-thieno[2,3-d]isoxazol-3-yl-phenoxy)-ethyl]-amine]",7.85
4,"Fc1ccc(CNCCCOc2cccc(-c3noc4ccsc34)c2)cc1F [Compound 42, (3,4-difluoro-benzyl)-[3-(3-thieno[2,3-d]isoxazol-3-yl-phenoxy)-propyl]-amine]",7.33
5,"COc1ccc(CNCCCOc2cccc(-c3noc4ccsc34)c2)cc1 [Compound 5, (4-methoxy-benzyl)-[3-(3-thieno[2,3-d]isoxazol-3-yl-phenoxy)-propyl]-amine]",7.04
6,"COc1cccc(CNCCOc2cccc(-c3noc4ccsc34)c2)c1 [Compound 36, (3-methoxy-benzyl)-[2-(3-thieno[2,3-d]isoxazol-3-yl-phenoxy)-ethyl]-amine]",7.89
7,"Cc1ccc(CNCCCOc2cccc(-c3noc4ccsc34)c2)cc1 [Compound 39, (4-methyl-benzyl)-[3-(3-thieno[2,3-d]isoxazol-3-yl-phenoxy)-propyl]-amine]",7.70
8,"c1cc(OCCCNCc2cccs2)cc(-c2noc3ccsc23)c1 [Compound 6, [3-(3-thieno[2,3-d]isoxazol-3-yl-phenoxy)-propyl]-thiophen-2-ylmethylamine]",7.57
9,"c1cncc(CNCCCOc2cccc(-c3noc4ccsc34)c2)c1 [Compound 8, pyridin-3-ylmethyl-[3-(3-thieno[2,3-d]isoxazol-3-yl-phenoxy)-propyl]-amine]",7.12
10,"Fc1ccccc1CNCCCOc1cccc(-c2noc3ccsc23)c1 [Compound 2, (2-fluoro-benzyl)-[3-(3-thieno[2,3-d]isoxazol-3-yl-phenoxy)-propyl]-amine]",7.21

# Same assay, conditions: @ 1 μM test compound; 3H-spiperone binding; read-out: D4 RBA % Inhibition (@ 1 μM)
row,Structure (SMILES),inhibition at 1 µM [%]
1,"FC(F)(F)c1ccccc1CNCCOc1cccc(-c2noc3ccsc23)c1 [Compound 51, [2-(3-thieno[2,3-d]isoxazol-3-yl-phenoxy)-ethyl]-(2-trifluoromethylbenzyl)-amine]",58
2,"CCCC1CCN(CCOc2cccc(-c3noc4ccsc34)c2)CC1 [Compound 60, 3-{3-[2-(4-propyl-piperidin-1-yl)-ethoxy]-phenyl}-thieno[2,3-d]isoxazole]",82
3,"c1cc(OCCN2CCc3ccccc3C2)cc(-c2noc3ccsc23)c1 [Compound 29, 2-[2-(3-thieno[2,3-d]isoxazol-3-yl-phenoxy)-ethyl]-1,2,3,4-tetrahydroisoquinoline]",60
4,"c1cc(OCCCNC23CC4CC(CC(C4)C2)C3)cc(-c2noc3ccsc23)c1 [Compound 53, adamantan-1-yl-[3-(3-thieno[2,3-d]isoxazol-3-yl-phenoxy)-propyl]-amine]",94
5,"Fc1ccc(CNCCCOc2cccc(-c3noc4ccsc34)c2)c(F)c1 [Compound 55, (2,4-difluoro-benzyl)-[3-(3-thieno[2,3-d]isoxazol-3-yl-phenoxy)-propyl]-amine]",92
6,"c1cncc(CNCCOc2cccc(-c3noc4ccsc34)c2)c1 [Compound 25, pyridin-3-ylmethyl-[2-(3-thieno[2,3-d]isoxazol-3-yl-phenoxy)-ethyl]-amine]",93
7,"FC(F)(F)c1ccc(CNCCCOc2cccc(-c3noc4ccsc34)c2)cc1 [Compound 58, [3-(3-thieno[2,3-d]isoxazol-3-yl-phenoxy)-propyl]-(4-trifluoromethylbenzyl)-amine]",77
8,"c1cc(OCCNC2CCc3ccccc32)cc(-c2noc3ccsc23)c1 (stereo not shown) [Compound 38, indan-1-yl-[2-(3-thieno[2,3-d]isoxazol-3-yl-phenoxy)-ethyl)-amine]",95
9,"Clc1ccccc1CNCCOc1cccc(-c2noc3ccsc23)c1 [Compound 35, (2-chloro-benzyl)-[2-(3-thieno[2,3-d]isoxazol-3-yl-phenoxy)-ethyl]-amine]",88
10,"c1cc(OCCN2CCCCCC2)cc(-c2noc3ccsc23)c1 [Compound 62, 3-[3-(2-azepan-1-yl-ethoxy)-phenyl]-thieno[2,3-d]isoxazole]",90
11,"c1ccc(N2CCN(CCOc3cccc(-c4noc5ccsc45)c3)CC2)cc1 [Compound 28, 3-{3-[2-(4-phenyl-piperazin-1-yl)-ethoxy]-phenyl}-thieno[2,3-d]isoxazole]",78
12,"Clc1ccc(CNCCOc2cccc(-c3noc4ccsc34)c2)cc1Cl [Compound 22, (3,4-dichloro-benzyl)-[2-(3-thieno[2,3-d]isoxazol-3-yl-phenoxy)-ethyl]-amine]",99
13,"Fc1cccc(F)c1CNCCOc1cccc(-c2noc3ccsc23)c1 [Compound 50, (2,6-difluoro-benzyl)-[2-(3-thieno[2,3-d]isoxazol-3-yl-phenoxy)-ethyl]-amine]",65
14,"c1cc(OCCN2CCCCCCC2)cc(-c2noc3ccsc23)c1 [Compound 63, 3-[3-(2-azocan-1-yl-ethoxy)-phenyl]-thieno[2,3-d]isoxazole]",54
15,"c1cc(OCCCNC2Cc3ccccc3C2)cc(-c2noc3ccsc23)c1 [Compound 44, indan-2-yl-[3-(3-thieno[2,3-d]isoxazol-3-yl-phenoxy)-propyl]-amine]",96
16,"NS(=O)(=O)c1ccc(CCNCCCOc2cccc(-c3noc4ccsc34)c2)cc1 [Compound 15, 4-{2-[3-(3-thieno[2,3-d]isoxazol-3-yl-phenoxy)-propylamino]-ethyl}-benzenesulfonamide]",65
17,"FC(F)(F)c1ccccc1CNCCCOc1cccc(-c2noc3ccsc23)c1 [Compound 57, [3-(3-thieno[2,3-d]isoxazol-3-yl-phenoxy)-propyl]-(2-trifluoromethylbenzyl)-amine]",46
18,"FC(F)(F)c1ccc(CNCCOc2cccc(-c3noc4ccsc34)c2)cc1 [Compound 52, [2-(3-thieno[2,3-d]isoxazol-3-yl-phenoxy)-ethyl]-(4-trifluoromethylbenzyl)-amine]",96
19,"NS(=O)(=O)c1ccc(CNCCCOc2cccc(-c3noc4ccsc34)c2)cc1 [Compound 14, 4-{[3-(3-thieno[2,3-d]isoxazol-3-yl-phenoxy)-propylamino]-methyl}-benzenesulfonamide]",60
20,"c1cc(OCCN2CCCCC2)cc(-c2noc3ccsc23)c1 [Compound 48, 3-[3-(2-piperidin-1-yl-ethoxy)-phenyl]-thieno[2,3-d]isoxazole]",83
21,"Fc1ccc(N2CCN(CCCOc3cccc(-c4noc5ccsc45)c3)CC2)cc1 [Compound 11, 3-(3-{3-[4-(4-fluoro-phenyl)-piperazin-1-yl]-propoxy}-phenyl)-thieno[2,3-d]isoxazole]",91
